Reference: patent US10952992B2, “Methods of treating intraocular pressure with activators of Tie-2” (Aerpio Pharmaceuticals, Inc., priority 2015, dated 2021)
Counter-ions that a name gives are not always drawn.

System: eye
Test: Example 3 ophthalmic examination, modified McDonald-Shadduck scoring (tolerability)
Format: in vivo, New Zealand White rabbits
Procedure: Prior to placement on study, each animal underwent an ophthalmic examination (slitlamp biomicroscopy and indirect ophthalmoscopy). Ocular findings were scored according to a modified McDonald-Shadduck Scoring System and recorded on a standardized data sheet. The acceptance criteria for placement on study were scores of “0” for all variables.
Ophthalmic examination (slit-lamp biomicroscopy only) was performed at baseline (prior to the start of dosing) and on Days 1, 4, and 8. Ocular findings were scored according to a modified McDonald-Shadduck Scoring System. A slit lamp was used to observe conjunctival discharge, […], […], the cornea, the surface area of cornea involvement, pannus, pupillary response, aqueous flare, cellular flare, iris involvement, and the lens. An indirect ophthalmoscope was used to observe the vitreous, vitral hemorrhage, retinal detachment, retinal hemorrhage, and choroidal/retinal inflammation. Animals were prepared for observation by using a solution (atropine, tropicaminde, or phenylephrine) to dilate the pupils.
Conjunctival discharge was defined as a whitish gray precipitate from the eye. Scoring was as follows. • 0=Normal, no discharge. • 1=Discharge above normal and present on the inner portion of the eye but not on the lids or hairs of the eyelids. • 2=Discharge is abundant, easily observed and has collected on the lids and hairs of the eyelids. • 3=Discharge has been flowing over the eyelids so as to wet the hairs substantially on the skin around the eye.
Conjunctival congestion causes the blood vessels of the eye to become enlarged. Scoring was as follows. • 0=Normal, may appear blanched to reddish pink without perilimbal injection (except at the 12:00 and 6:00 positions) with vessels of the palpebral and bulbar conjunctiva easily observed. • 1=A flushed, reddish color predominantly confined to the palpebral conjunctiva with some perilimbal injection but primarily confined to the lower and upper parts of the eye from the 4:00 to the 7:00 and 11:00 to 1:00 positions. • 2=Bright red color of the palpebral conjunctiva with accompanying perilimbal injection covering at least 75% of the circumference of the perilimbal region. • 3=Dark, beefy red color with congestion of both the bulbar and palpebral conjunctiva along with pronounced perilimbal injection and the presence of petechial on the conjunctiva. The petechial generally predominates along the nictitating membrane and upper palprebal conjunctiva.
Conjunctival swelling, defined as swelling of the conjunctiva, was scored as follows. • 0=Normal or no swelling of the conjunctival tissue. • 1=Swelling above normal without eversion of the eyelids (easily discerned by noting upper and lower eyelids are positioned as in the normal eye); swelling generally starts in the lower cul-de-sac near the inner canthus. • 2=Swelling with misalignment of the normal approximation of the lower and upper eyelids; primarily confined to the upper eyelid so that in the initial stages, the misapproximation of the eyelids begins by partial eversion of the upper eyelid. In this state the swelling is confined generally to the upper eyelid with some swelling in the lower cul-de-sac. • 3=Swelling definite with partial eversion of the upper and lower eyelids essentially equivalent. […] It is difficult to retract the lids and observe the perilimbal region.
Iris involvement was observed by checking the iris for hyperemia of the blood vessels. Scoring was as follows. • 0=Normal iris without any hyperemia of the blood vessels. • 1=Some loss of transparency. Only the epithelium and/or the anterior half of the stroma are involved. The underlying structures are clearly visible although some cloudiness may be readily apparent. • 2=Involvement of the entire thickness of the stroma. […]

[1] = Day 1, Group 2 (0.45 mg/eye topical BID), N=5

COC(=O)N[C@@H](Cc1ccccc1)C(=O)N[C@@H](Cc1ccc(NS(=O)(=O)O)cc1)c1csc(-c2cccs2)n1 [Compound 1 sodium salt]
animals with mild conjunctival congestion (scores=1) [1]: five | animals with mild conjunctival swelling [1]: one | animals with mild conjunctival congestion (scores=1) (Day 1, Group 3 (1.2 mg/eye topical BID), N=5): two | animals with mild conjunctival congestion (scores=1) (Day 1, Group 4 (1.2 mg/eye topical QD), N=5): one | animals with mild conjunctival congestion (scores=1) (Day 1, Group 5 (10 mg/kg SC BID), N=5): three | animals with mild conjunctival congestion (scores=1) (Day 4, Group 2 (0.45 mg/eye topical BID), N=5): two | animals with mild conjunctival congestion (scores=1) (Day 4, Group 3 (1.2 mg/eye topical BID), N=5): two | animals with mild conjunctival congestion (scores=1) (Day 4, Group 4 (1.2 mg/eye topical QD), N=5): one | animals with mild conjunctival congestion (scores=1) (Day 4, Group 5 (10 mg/kg SC BID), N=5): none | ocular anomalies (Day 8, all groups): No ocular anomalies | relation of mild conjunctival congestion to test article (Example 3): unrelated to the test article
